# Results published in patent US5776886A, “Intravaginal preparation containing physiologically active peptide” (Teikoku Seiyaku Kabushiki Kaisha, priority 1993, dated 1998).
# What was measured:
# Assay type in all cases: in vivo, Wistar rats
# [1] = tested on: calcium level in the serum; experiment: Experiment 1: serum calcium reduction after human calcitonin intravaginal suppository, sucrose fatty acid ester plus citric acid vs each alone; settings: for Reduction rate (%) of calcium level in the serum: intravaginal suppository 20 μg, ovariectomized rats
# Procedure: To the mixture was added a commercially available base for intravaginal preparation; Witepsol S-55 (which is prepared from Witepsol E-85 so as to give a final intravaginal suppository having a melting point of 36.5° C., manufactured by Hils Co., Ltd., former Diamit Novel Co., Ltd) which was homogenized by previously warming and stirring thereof so as to give an intravaginal suppository with the total weight of 5.00 g. […] The mixture was poured into a tube (inside diameter: about 3 mm) made of teflon at about 40° C., cooled to solidify, and taken out from the tube. The solidified mixture was cut into pieces (weight: 50 mg) to give intravaginal suppositories for rats containing human calcitonin (20 μg/each). There were also obtained two kinds of intravaginal suppositories prepared by adding citric acid (50 mg) only, and prepared by adding a sucrose fatty acid ester (100 mg) only, likewise. There were obtained intravaginal suppositories containing only human calcitonin without citric acid nor a sucrose fatty acid ester, likewise, which are used as control.
# (§1) An intravaginal suppository was administered into the rat's vagina, and the blood was collected periodically (2, 4 and 6 hours after administration of the test preparation).
# (§2) The serum was separated, and the calcium level in the serum was determined by using a kit for determination of calcium (Calcium C Test Wako; manufactured by Wako Pure Chemical Industries, Ltd.) (n=3).
# [2] = tested on: calcium level in the serum; experiment: Experiment 2: effects of various bases on serum calcium reduction; settings: for Reduction rate (%) of calcium level in the serum: S-970 + citric acid, intravaginal suppository 20 μg, rats
# Procedure: as §1, §2
# In the same manner as in Experiment 1, each intravaginal suppository was administered to the rat's vagina, and the blood was collected periodically (2, 4 and 6 hours after administration of intravaginal suppository), and the calcium level in the serum thereof was determined (n=4).
# [3] = tested on: calcium level in the serum; experiment: Experiment 3: effects of various sucrose fatty acid esters on serum calcium reduction; settings: intravaginal suppository 20 μg, rats
# Procedure: as §1, §2
# In the same manner, there were prepared various sucrose fatty acid esters having the same HLB value but being combined with a different fatty acid (Table B), and four kinds of intravaginal suppositories for rats were prepared by using each 100 mg of sucrose fatty acid ester.
# In the same manner as in Experiment 1, each intravaginal suppository was administered to the rat's vagina, and the blood was collected periodically 2, 4 and 6 hours after administration of intravaginal suppository), and the calcium level in the serum thereof was determined (n=4).
substance,measurement,setting,value
Human calcitonin,Reduction rate (%) of calcium level in the serum,"[1]; Control: only human calcitonin, no citric acid nor sucrose fatty acid ester, 2 hr",2.6%
same,Reduction rate (%) of calcium level in the serum,"[1]; Control: only human calcitonin, no citric acid nor sucrose fatty acid ester, 4 hr",2.2%
same,Reduction rate (%) of calcium level in the serum,"[1]; Control: only human calcitonin, no citric acid nor sucrose fatty acid ester, 6 hr",3.8%
same,Reduction rate (%) of calcium level in the serum,"[1]; added: citric acid only, 2 hr",9.5%
same,Reduction rate (%) of calcium level in the serum,"[1]; added: citric acid only, 4 hr",8.0%
same,Reduction rate (%) of calcium level in the serum,"[1]; added: citric acid only, 6 hr",5.7%
same,Reduction rate (%) of calcium level in the serum,"[1]; added: sucrose fatty acid ester (S-970) and citric acid, base Witepsol S-55, 2 hr",14.9%
same,Reduction rate (%) of calcium level in the serum,"[1]; added: sucrose fatty acid ester (S-970) and citric acid, base Witepsol S-55, 4 hr",19.5%
same,Reduction rate (%) of calcium level in the serum,"[1]; added: sucrose fatty acid ester (S-970) and citric acid, base Witepsol S-55, 6 hr",11.1%
same,Reduction rate (%) of calcium level in the serum,"[1]; added: sucrose fatty acid ester (S-970) only, 2 hr",10.6%
same,Reduction rate (%) of calcium level in the serum,"[1]; added: sucrose fatty acid ester (S-970) only, 4 hr",10.5%
same,Reduction rate (%) of calcium level in the serum,"[1]; added: sucrose fatty acid ester (S-970) only, 6 hr",10.7%
same,"calcitonin-absorption promotion effects, on the basis of the reduction rate of the calcium level in the serum",[1]; combination of sucrose fatty acid ester and citric acid compared with either only,far superior
same,Reduction rate (%) of calcium level in the serum,"[2]; base Cacao butter, 2 hr",12.5%
same,Reduction rate (%) of calcium level in the serum,"[2]; base Cacao butter, 4 hr",10.7%
same,Reduction rate (%) of calcium level in the serum,"[2]; base Cacao butter, 6 hr",8.3%
same,Reduction rate (%) of calcium level in the serum,"[2]; base Pharmasol B-105, 2 hr",13.4%
same,Reduction rate (%) of calcium level in the serum,"[2]; base Pharmasol B-105, 4 hr",14.8%
same,Reduction rate (%) of calcium level in the serum,"[2]; base Pharmasol B-105, 6 hr",10.6%
same,Reduction rate (%) of calcium level in the serum,"[2]; base Witepsol H-15, 2 hr",16.8%
same,Reduction rate (%) of calcium level in the serum,"[2]; base Witepsol H-15, 4 hr",17.7%
same,Reduction rate (%) of calcium level in the serum,"[2]; base Witepsol H-15, 6 hr",10.4%
same,Reduction rate (%) of calcium level in the serum,"[2]; base Witepsol S-55, 2 hr",16.5%
same,Reduction rate (%) of calcium level in the serum,"[2]; base Witepsol S-55, 4 hr",22.5%
same,Reduction rate (%) of calcium level in the serum,"[2]; base Witepsol S-55, 6 hr",13.0%
same,Reduction rate (%) of calcium level in the serum,"[2]; base Witepsol W-35, 2 hr",6.6%
same,Reduction rate (%) of calcium level in the serum,"[2]; base Witepsol W-35, 4 hr",20.4%
same,Reduction rate (%) of calcium level in the serum,"[2]; base Witepsol W-35, 6 hr",13.2%
same,promotion effect on absorption of calcitonin,"[2]; combination of sucrose fatty acid ester and citric acid, five bases",extremely excellent promotion effect on absorption of calcitonin regardless of any base to be used
same,Reduction rate (%) of calcium level in the serum,"[3]; Ryoto-Sugar Ester (L-1695), HLB 16, lauric acid, + citric acid, 2 hr",12.8%
same,Reduction rate (%) of calcium level in the serum,"[3]; Ryoto-Sugar Ester (L-1695), HLB 16, lauric acid, + citric acid, 4 hr",13.4%
same,Reduction rate (%) of calcium level in the serum,"[3]; Ryoto-Sugar Ester (L-1695), HLB 16, lauric acid, + citric acid, 6 hr",11.4%
same,Reduction rate (%) of calcium level in the serum,"[3]; Ryoto-Sugar Ester (S-370), HLB 3, stearic acid, + citric acid, 2 hr",13.4%
same,Reduction rate (%) of calcium level in the serum,"[3]; Ryoto-Sugar Ester (S-370), HLB 3, stearic acid, + citric acid, 4 hr",18.2%
same,Reduction rate (%) of calcium level in the serum,"[3]; Ryoto-Sugar Ester (S-370), HLB 3, stearic acid, + citric acid, 6 hr",11.4%
same,Reduction rate (%) of calcium level in the serum,"[3]; Ryoto-Sugar Ester (S-570), HLB 5, stearic acid, + citric acid, 2 hr",12.8%
same,Reduction rate (%) of calcium level in the serum,"[3]; Ryoto-Sugar Ester (S-570), HLB 5, stearic acid, + citric acid, 4 hr",17.2%
same,Reduction rate (%) of calcium level in the serum,"[3]; Ryoto-Sugar Ester (S-570), HLB 5, stearic acid, + citric acid, 6 hr",12.0%
same,Reduction rate (%) of calcium level in the serum,"[3]; Ryoto-Sugar Ester (S-770), HLB 7, stearic acid, + citric acid, 2 hr",13.6%
same,Reduction rate (%) of calcium level in the serum,"[3]; Ryoto-Sugar Ester (S-770), HLB 7, stearic acid, + citric acid, 4 hr",14.8%
same,Reduction rate (%) of calcium level in the serum,"[3]; Ryoto-Sugar Ester (S-770), HLB 7, stearic acid, + citric acid, 6 hr",11.8%
same,Reduction rate (%) of calcium level in the serum,"[3]; Ryoto-Sugar Ester (S-970), HLB 9, stearic acid, + citric acid (Table 3), 2 hr",12.2%
same,Reduction rate (%) of calcium level in the serum,"[3]; Ryoto-Sugar Ester (S-970), HLB 9, stearic acid, + citric acid (Table 3), 4 hr",17.4%
same,Reduction rate (%) of calcium level in the serum,"[3]; Ryoto-Sugar Ester (S-970), HLB 9, stearic acid, + citric acid (Table 3), 6 hr",11.8%
same,Reduction rate (%) of calcium level in the serum,"[3]; Ryoto-Sugar Ester (S-1670), HLB 16, stearic acid, + citric acid, 2 hr",11.4%
same,Reduction rate (%) of calcium level in the serum,"[3]; Ryoto-Sugar Ester (S-1670), HLB 16, stearic acid, + citric acid, 4 hr",16.4%
same,Reduction rate (%) of calcium level in the serum,"[3]; Ryoto-Sugar Ester (S-1670), HLB 16, stearic acid, + citric acid, 6 hr",12.6%
